Strand notation (5' to 3'): a small letter for the sugar, then the base; units joined by * are phosphorothioate-linked, units joined directly phosphodiester-linked; [ ] holds rarer units or linkages, { } end groups; capitals alone tell only the bases. e = 2'-O-(2-methoxyethyl) (MOE); [5mC] = 5-methylcytosine; d = 2'-deoxy (DNA)
What was measured:
mouse SGLT2 mRNA = experiment: Mouse SGLT2 mRNA in kidney, additional 1-10-1 and 2-8-2 MOE gapmers (Table 68); type: in vivo; details: Balb/c mouse kidney
Procedure: 1-10-1 and 2-8-2 MOE gapmer short antisense compounds were designed to target different regions of the mouse SGLT2 RNA but have complementarity across species. […] All cytidine residues are 5-methylcytidines.
The short antisense compounds were analyzed for their effect on mouse SGLT2 mRNA levels in vivo. Data was taken from three experiments in which male 6-week old Balb/c mice were dosed twice per week for three weeks with 0.5, 0.1, or 0.02 umol/kg of either a 1-10-1 or 2-8-2 MOE gapmer given by intraperitoneal injection. Mice were sacrificed 48 hours following last administration and evaluated for SGLT2 levels in kidney. Target levels were determined by RT, real-time PCR as described by other examples herein. PCR results were normalized to an internal ISIS control.

SGLT2 mRNA = SGLT2 mRNA in kidney of Balb/c mice, twenty 1-10-1 MOE gapmers, PPS 534 and PPS 553 (Table 74); type: in vivo, mouse; details: i.p. 350 nmol/kg twice per week for two weeks
Procedure: Twenty 1-10-1 MOE gapmers that are complementary to human/monkey/mouse/rat SGLT2 were designed, synthesized and tested in vivo for suppression of SGLT2 mRNA levels in kidney. Data are averages from two experiments in which male 6-week old Balb/c mice were administered intraperitoneal injections of 350 nmol/kg of oligonucleotide, twice per week, over a period of two weeks (a total of four injections). Mice were sacrificed 48 hours following the last administration and evaluated for SGLT2 mRNA levels in kidney. SGLT2 mRNA levels were determined by quantitative real-time PCR analysis according to standard procedures, using two different PCR primer probe sets, primer probe set (PPS) 534 and PPS 553. SGLT2 mRNA levels were normalized to cyclophilin mRNA levels, which were also measured by quantitative real-time PCR.

[1] = primer probe set 534, normalized to cyclophilin
[2] = primer probe set 553, normalized to cyclophilin

| Substance | % change in SGLT2 expression relative to saline (mouse SGLT2 mRNA; 0.02 umol/kg i.p. twice per week for three weeks) | % change in SGLT2 expression relative to saline (mouse SGLT2 mRNA; 0.1 umol/kg i.p. twice per week for three weeks) | % change in SGLT2 expression relative to saline (mouse SGLT2 mRNA; 0.5 umol/kg i.p. twice per week for three weeks) | % change in SGLT2 mRNA vs saline (SGLT2 mRNA; [1]) | % change in SGLT2 mRNA vs saline (SGLT2 mRNA; [2]) |
| --- | --- | --- | --- | --- | --- |
| ISIS 388627 (eG*e[5mC]*dA*d[5mC]*dA*d[5mC]*dA*dG*d[5mC]*dT*eG*e[5mC]) | −38% | −50% | −65% | – | – |
| 379695 (antisense eG*dG*dA*d[5mC]*dA*d[5mC]*d[5mC]*dG*dT*d[5mC]*dA*eG) [compound 379695] | – | – | – | −52.5 % Saline | −64.1 % Saline |
| 379694 (antisense eG*dA*d[5mC]*dG*dA*dA*dG*dG*dT*d[5mC]*dT*eG) [compound 379694] | – | – | – | −42.1 % Saline | −54.4 % Saline |

Reference: patent publication US8372967B2, “Compounds and methods for modulating expression of GCCR” (Isis Pharmaceuticals, Inc., priority 2006, dated 2013)
